The source of these data is patent EP4775580A1, “COMPOUND, PHARMACEUTICAL COMPOSITION COMPRISING SAME, AND USE THEREOF” (Euregen Biopharma Co., Ltd., priority 2023, dated 2025).

The target of one experiment is T1, hERG potassium channel (Homo sapiens, UniProt Q12809).
T1 construct: expressed in transfected cells; host or cells: HEK293 (HEK-293-hERG)
Put plainly: Inhibition of hERG current, manual whole-cell patch-clamp in HEK293 cells stably transfected with hERG. Type of experiment: cell-based. The source says: • 1. Objective: To evaluate the inhibitory effect of test compounds on hERG current in HEK293 cells stably transfected with the hERG potassium channel using manual patch-clamp technique. • 2. Experimental Materials: The test compound was Compound 3 prepared according to the examples of the present invention; the positive control compound SNDX-5613 was purchased from Chengdu Zhihui Zhongxin Biomedical Co., Ltd.; HEK293 cells were obtained from Procell (Cat. #CL-0001). […]
Following establishment of the whole-cell recording configuration, the holding potential was maintained at -80 mV. […] Once the recorded hERG current stabilized, compounds were administered via continuous extracellular perfusion from low to high concentrations (0.3, 1, 3, 10, and 30 µmol/L). […]
Data Acquisition and Analysis: Experimental data were acquired using Clampex software and analyzed using Clampfit software. First, the current following each compound concentration was normalized to the control current ((Peak tail current (compound))/(Peak tail current (blank))) × 100 [formula] , then the inhibition rate for each compound concentration was calculated (1−(Peak tail current (compound))/(Peak tail current (blank))) × 100 [formula] . […]
A general note: The hERG channel carries a current that helps repolarise heart muscle cells.

The target in the next experiment is T2, Menin-M327V (Homo sapiens, UniProt O00255, M322V).
T2 sequence (O00255 1-615 isoform O00255-1 M327V): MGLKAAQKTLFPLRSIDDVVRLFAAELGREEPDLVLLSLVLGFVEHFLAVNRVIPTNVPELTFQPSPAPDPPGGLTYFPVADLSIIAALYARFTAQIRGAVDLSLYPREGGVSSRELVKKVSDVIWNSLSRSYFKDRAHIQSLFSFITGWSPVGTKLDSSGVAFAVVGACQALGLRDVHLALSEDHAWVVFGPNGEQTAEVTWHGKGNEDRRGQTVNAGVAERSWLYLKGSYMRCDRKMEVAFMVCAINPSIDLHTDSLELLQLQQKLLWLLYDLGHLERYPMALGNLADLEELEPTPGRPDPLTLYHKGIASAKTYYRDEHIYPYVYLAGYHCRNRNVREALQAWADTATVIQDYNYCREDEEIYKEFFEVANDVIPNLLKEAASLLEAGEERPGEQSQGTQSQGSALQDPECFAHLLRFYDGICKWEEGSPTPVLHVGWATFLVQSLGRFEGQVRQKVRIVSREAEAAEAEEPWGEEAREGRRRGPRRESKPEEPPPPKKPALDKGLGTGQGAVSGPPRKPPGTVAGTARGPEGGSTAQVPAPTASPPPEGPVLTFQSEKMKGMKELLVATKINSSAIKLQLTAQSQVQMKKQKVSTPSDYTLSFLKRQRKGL
Put plainly: Fluorescence polarization assay of Menin binding to MLL peptide, M327V mutant. The conditions noted are these: FP, 8 nM Menin, 4 nM MLL peptide. The source says:
• 1. Objective: To evaluate the inhibitory activity of compounds against wild-type Menin protein (Menin-WT) and its mutant variants (Menin-M327V, Menin-M327I, Menin-T349M, Menin-S160T, Menin-S160C, Menin-G331R, and Menin-G331D). • 2. Experimental Principle: The experiment employed fluorescence polarization (FP) to detect the binding of wild-type Menin protein and its mutant variants to MLL peptide. In the absence of inhibitors, binding of wild-type Menin protein and its mutant variants to MLL peptide generates a high FP signal; upon addition of inhibitors, the binding between Menin proteins and MLL peptide is disrupted, resulting in a low FP signal. • 3. Experimental Materials: Final concentration of wild-type Menin protein and its mutant variants: 8 nM; final concentration of MLL peptide: 4 nM. Assay buffer: 50 mM Tris-HCl (pH 8.0), 120 mM NaCl, 0.005% CA-630, 2 mM DTT. • 4. […] The plate was centrifuged at 1000 rpm for 60 seconds. Subsequently, 10 µL of MLL peptide was added to each assay well. The plate was centrifuged at 1000 rpm for 60 seconds and sealed with a sealing membrane. After incubation at 23°C for 60 minutes, the plate was read using a PerkinElmer Envision reader. Data Analysis: [formula]
Curve fitting: XLFIT software was used for curve fitting, employing a four-parameter logistic model with percent inhibition versus log(compound concentration) as variables.
For orientation: Fluorescence polarisation rises when a labelled molecule tumbles more slowly, as on binding a larger partner.

For orientation: IC50 means the point on the concentration scale where inhibition reaches its midpoint.

Like-named read-outs stand apart in the source and are kept apart here.

T1 sequence (Q12809 whole entry): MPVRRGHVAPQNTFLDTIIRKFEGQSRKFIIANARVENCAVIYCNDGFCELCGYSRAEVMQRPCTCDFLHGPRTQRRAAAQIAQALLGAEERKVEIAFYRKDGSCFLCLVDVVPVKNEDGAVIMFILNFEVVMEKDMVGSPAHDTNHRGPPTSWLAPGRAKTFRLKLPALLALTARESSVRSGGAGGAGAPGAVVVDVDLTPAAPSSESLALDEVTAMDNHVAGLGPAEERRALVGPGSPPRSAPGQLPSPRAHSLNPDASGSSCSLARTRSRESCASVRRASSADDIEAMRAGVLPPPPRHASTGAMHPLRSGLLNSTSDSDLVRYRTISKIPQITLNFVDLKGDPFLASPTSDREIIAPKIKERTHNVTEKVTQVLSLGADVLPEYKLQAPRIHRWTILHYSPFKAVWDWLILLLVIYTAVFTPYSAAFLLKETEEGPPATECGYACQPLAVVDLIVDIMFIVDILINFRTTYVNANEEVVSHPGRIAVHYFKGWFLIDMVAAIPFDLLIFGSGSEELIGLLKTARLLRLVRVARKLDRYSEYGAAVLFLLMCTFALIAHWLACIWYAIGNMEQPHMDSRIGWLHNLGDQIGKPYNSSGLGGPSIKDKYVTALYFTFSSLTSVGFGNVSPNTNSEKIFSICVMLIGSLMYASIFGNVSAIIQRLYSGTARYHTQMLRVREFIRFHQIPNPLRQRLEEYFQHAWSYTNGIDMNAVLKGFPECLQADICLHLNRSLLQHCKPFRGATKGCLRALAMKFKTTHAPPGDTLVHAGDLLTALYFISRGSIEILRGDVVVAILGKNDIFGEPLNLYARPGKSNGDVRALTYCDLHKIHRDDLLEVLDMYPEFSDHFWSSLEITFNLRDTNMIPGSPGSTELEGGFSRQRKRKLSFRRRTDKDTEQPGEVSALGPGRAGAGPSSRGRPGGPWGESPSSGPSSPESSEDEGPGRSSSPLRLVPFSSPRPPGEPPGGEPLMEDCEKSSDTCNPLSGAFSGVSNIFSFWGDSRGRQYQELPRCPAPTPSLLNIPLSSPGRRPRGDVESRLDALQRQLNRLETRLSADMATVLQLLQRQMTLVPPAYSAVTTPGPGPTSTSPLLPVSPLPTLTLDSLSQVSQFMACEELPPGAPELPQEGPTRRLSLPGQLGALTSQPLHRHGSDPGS

For the compound `CCN(C(=O)c1cc(F)ccc1N1CCN([C@@H]2CCN([C@H](CCCN(C)CCOC)C(C)C)C2)c2ncncc21)C(C)C` [Example 3], the IC50 against hERG potassium channel was over 30000 nM; on Menin-M327V, 49.3 nM.
With `CCN(C(=O)c1cc(F)ccc1Oc1cncnc1N1CC2(CCN(C[C@H]3CC[C@H](NS(=O)(=O)CC)CC3)CC2)C1)C(C)C` [SNDX-5613, revumenib], the IC50 on hERG potassium channel (HEK293-hERG cells, manual patch-clamp, 0.3-30 µmol/L, room temperature, read-out: IC50 (hERG tail current)) was 7590 nM; at Menin-M327V, 1300 nM.
